Source: patent US9937179B2, “Combined treatment for cancer resistant to an epidermal growth factor receptor kinase inhibitor” (Pre Clinical Oncology Services Ltd., priority 2014, dated 2018)
Entries after “also recorded” stand apart in the source; their conditions may differ.

What was measured:
[1] = tested on: HCC827-ER1 subcutaneous xenograft; details: s.c. HCC827-ER1 tumors, n=5/group
Method: (§1) Tumour measurements and body weights were taken 3 times weekly and treatment initiated when the tumours reached a mean volume of ˜200 mm^3 (n=5 per group).
(§2) Mice were anaesthetised and transported to the SARRP where CBCT (cone beam computed tomography) images were acquired. Using the MuriSlice software the isocenter of the tumour was identified and aligned with the central axis of the beam. […] A tolerability was performed initially to evaluate 3 Gy/day×5 days for 2 week.

[2] = tested on: HCC827 subcutaneous xenograft; details: s.c. HCC827 tumours, n=5/group, Erlotinib 25 mg/kg po QD
Method: as §1, §2

Row | Compound | tumor growth inhibition compared with vehicle/control ([1]; drug alone, p<0.001, Erlotinib 25 mg/kg po QD) [%] | tumor regression, drug combined with irradiation [1] | effect on tumor volume, drug alone [2] | tumor regression, drug alone ([1]; drug alone)
1 | C[C@@H](Oc1cc(-c2cnn(C3CCNCC3)c2)cnc1N)c1c(Cl)ccc(F)c1Cl [Crizotinib, 3-[(1R)-1-(2,6-dichloro-3-fluorophenyl)ethoxy]-5-(1-piperidin-4-ylpyrazol-4-yl)pyridin-2-amine] | ~60 | tumour regression was restored; also recorded: tumor regression was restored | no effect | –
2 | C#Cc1cccc(Nc2ncnc3cc(OCCOC)c(OCCOC)cc23)c1 [Erlotinib, N-(3-ethynylphenyl)-6,7-bis(2-methoxyethoxy) quinazolin-4-amine] | – | tumour regression was restored; also recorded: tumor regression was restored | – | no tumour regression; also recorded: no tumor regression
